Read-outs that look alike come from different tables or passages of the source.
Assays:
OVCAR-3 = experiment: NCI human cancer cell line screen (COMPARE screening), Ovarian OVCAR-3; format: cell-based
Source text: (§1) Considering the diversity of cancer in terms of cell type, morphology, growth rate and other cellular characteristics, the U.S. National Cancer Institute (NCI) has developed a “disease-oriented” approach to anticancer activity screening (M. R. Boyd, in “Principle of Practice of Oncology” […]. Rosenberg (Eds.) Vol. 3, PPO Update, No. 10, 1989). This in vitro prescreening system is based on the measurement of anticancer cytotoxicity against human cancer cell line panels consisting of approximately 60 cell lines of major human cancers (including leukemia and slower growing tumor cells such as lung, colon, breast, skin, kidney, etc.) and is referred hereinafter as “COMPARE” screening. An important advantage of the new in vitro screening panels is the opportunity to facilitate identification of compounds that are selectively more cytotoxic to cells of certain types of cancers, thus increasing the ability to select compounds for further study with respect to specific diseases. The indenoisoquinolines were examined for antiproliferative activity against the human cancer cell lines in the National Cancer Institute screen (COMPARE screening), in which the activity of each compound was evaluated with approximately […] different cancer cell lines of diverse tumor origins.

MDA-MB-435 = experiment: NCI human cancer cell line screen (COMPARE screening), Breast MDA-MB-435; format: cell-based
Source text: as §1

HOP-62 = experiment: NCI human cancer cell line screen (COMPARE screening), Lung HOP-62; format: cell-based
Source text: as §1

topoisomerase I = molecular target: T1, topoisomerase I (Homo sapiens, UniProt P11387); experiment: Topoisomerase I-mediated DNA cleavage assay (3'-end-labeled 161 bp pBluescript SK(-) fragment); format: biochemical; settings: relative to the activity of 1 μM camptothecin
T1 sequence (P11387 1-765): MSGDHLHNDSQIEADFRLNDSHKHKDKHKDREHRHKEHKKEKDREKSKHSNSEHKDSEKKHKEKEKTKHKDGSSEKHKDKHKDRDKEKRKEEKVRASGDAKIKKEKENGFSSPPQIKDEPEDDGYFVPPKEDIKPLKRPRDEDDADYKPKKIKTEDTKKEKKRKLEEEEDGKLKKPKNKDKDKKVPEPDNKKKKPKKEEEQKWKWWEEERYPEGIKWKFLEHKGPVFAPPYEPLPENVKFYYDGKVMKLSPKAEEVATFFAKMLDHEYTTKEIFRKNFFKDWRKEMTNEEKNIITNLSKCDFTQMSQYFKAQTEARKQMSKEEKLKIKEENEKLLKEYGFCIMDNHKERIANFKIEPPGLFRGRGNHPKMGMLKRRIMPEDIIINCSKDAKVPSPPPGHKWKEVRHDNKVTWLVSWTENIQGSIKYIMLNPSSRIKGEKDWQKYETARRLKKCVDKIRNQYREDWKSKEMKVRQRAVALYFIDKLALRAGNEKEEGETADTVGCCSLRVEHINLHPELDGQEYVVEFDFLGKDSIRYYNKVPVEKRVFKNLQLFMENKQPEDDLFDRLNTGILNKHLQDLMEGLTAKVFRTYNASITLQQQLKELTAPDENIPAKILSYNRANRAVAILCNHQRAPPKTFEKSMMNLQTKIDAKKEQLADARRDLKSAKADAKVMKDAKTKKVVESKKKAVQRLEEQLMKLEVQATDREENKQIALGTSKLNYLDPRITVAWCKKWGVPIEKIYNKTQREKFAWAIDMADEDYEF
Protocol: Topoisomerase I-Mediated DNA Cleavage Reactions Using 3′-End-labeled 161 BP Plasmid DNA
The 161 bp fragment from pBluescript SK(−) phagemid DNA (Stratagene, La Jolla, Calif.) was cleaved with the restriction endonuclease Pvu II and Hind III (New England Biolabs, Beverly, Mass.) in supplied NE buffer 2 (10 μL reactions) for 1 h at 37° C., separated by electrophoresis in a 1% agarose gel made in 1×TBE buffer. The 161 bp fragment was eluted from the gel slice (centrilutor by Amicon) and concentrated in a centricon 50 centrifugal concentrator (Amicon, Beverly, Mass.). Approximately 200 ng of the fragment was 3′-end-labeled at the Hind III site by fill-in reaction with [alpha-^32P]-dCTP and 0.5 mM dATP, dGTP, and dTTP, in React 2 buffer (50 mM Tris-HCl, pH 8.0, […], 50 mM NaCl) with 0.5 units of DNA polymerase I (Klenow fragment). Labeling reactions were followed by phenol-chloroform extraction and ethanol precipitation. The resulting 161 bp 3′-endlabeled DNA fragment was resuspended in water. Aliquots (approximately 50,000 dpm/reaction) were incubated with topoisomerase I at 30° C. for 15 min in the presence of the indicated drug. Reactions were terminated by adding 0.5% SDS. After ethanol precipitation, the samples were resuspended in loading buffer (80% formamide, 10 mM sodium hydroxide, 1 mM sodium EDTA, 0.1% xylene cyanol, and 0.1% bromophenol blue, pH 8.0), and separated in a denaturing gel (16% polyacrylamide, 7 M urea) run at 51° C. The gel was dried and visualized by using a Phosphoimager and ImageQuant software (Molecular Dynamics, Sunnyvale, Calif.).

HCT-116 = experiment: NCI human cancer cell line screen (COMPARE screening), Colon HCT-116; format: cell-based
Source text: as §1

[1] = test system: approximately 55 different cancer cell lines of diverse tumor origins; experiment: NCI screen mean graph midpoint over all cell lines tested; format: cell-based, human; settings: for IC50: average GI50 for all cell lines tested (approximately 55), values outside test range taken as 10^-8 or 10^-4 molar, read-out: MGM (mean graph midpoint); for cytotoxicity (MGM) relative to lead compound 1: comparison in words
Source text: as §1

SF-539 = experiment: NCI human cancer cell line screen (COMPARE screening), CNS SF-539; format: cell-based
Source text: as §1

SN12C = experiment: NCI human cancer cell line screen (COMPARE screening), Renal SN12C; format: cell-based
Source text: as §1

DU-145 = experiment: NCI human cancer cell line screen (COMPARE screening), Prostate DU-145; format: cell-based
Source text: as §1

UACC-62 = experiment: NCI human cancer cell line screen (COMPARE screening), Melanoma UACC-62; format: cell-based
Source text: as §1

[2] = Homo sapiens, OVCAR-3, concentration causing 50% growth inhibition, read-out: Cytotoxicity (G150 in μM) Ovarian OVCAR-3
[3] = Homo sapiens, MDA-MB-435, concentration causing 50% growth inhibition, read-out: Cytotoxicity (G150 in μM) Breast MDA-MB-435
[4] = Homo sapiens, HOP-62, concentration causing 50% growth inhibition, read-out: Cytotoxicity (G150 in μM) Lung HOP-62
[5] = Homo sapiens, HCT-116, concentration causing 50% growth inhibition, read-out: Cytotoxicity (G150 in μM) Colon HCT-116
[6] = Homo sapiens, SF-539, concentration causing 50% growth inhibition, read-out: Cytotoxicity (G150 in μM) CNS SF-539
[7] = Homo sapiens, SN12C, concentration causing 50% growth inhibition, read-out: Cytotoxicity (G150 in μM) Renal SN12C
[8] = Homo sapiens, DU-145, concentration causing 50% growth inhibition, read-out: Cytotoxicity (G150 in μM) Prostate DU-145
[9] = Homo sapiens, UACC-62, concentration causing 50% growth inhibition, read-out: Cytotoxicity (G150 in μM) Melanoma UACC-62

## CC[n+]1cc2cc(OC)c(OC)cc2c2c1-c1cc3c(cc1C2)OCO3 [Compound 27, 6-Ethyl-2,3-dimethoxy-8,9-(methylenedioxy)-11H-indeno[1,2-c]isoquinolinium Chloride]
OVCAR-3; [2]
  IC50: 1.9 µM
MDA-MB-435; [3]
  IC50: 14 µM
HOP-62; [4]
  IC50: 22 µM
Topoisomerase I
  Top 1 Cleavage: ++ (those compounds having greater than 50% of the activity of 1 μM camptothecin)
HCT-116; [5]
  IC50: 13 µM
[1]; Homo sapiens
  IC50: 13 µM
[1]
  cytotoxicity (MGM) relative to lead compound 1: lower MGM than the lead compound 1
SF-539; [6]
  IC50: 5.6 µM
SN12C; [7]
  IC50: 2.7 µM
DU-145; [8]
  IC50: 58 µM

## CCn1c2c(c3ccccc3c1=O)C(=O)c1ccccc1-2 [Compound 3, 6-Ethyl-5,6-dihydro-5,11-diketo-11H-indeno[1,2-c]isoquinoline]
Topoisomerase I
  Top 1 Cleavage: 0

## COc1cc2c3c(n(Cc4ccccc4)c(=O)c2cc1OC)-c1cc2c(cc1C3=O)OCO2 [Compound 13e, 6-Benzyl-5,6-dihydro-5,11-diketo 2,3-dimethoxy-8,9-methylenedioxy-11H-indeno[1,2-c]isoquinoline]
OVCAR-3; [2]
  IC50: > 100 µM
MDA-MB-435; [3]
  IC50: > 100 µM
HOP-62; [4]
  IC50: 12 µM
Topoisomerase I
  Top 1 Cleavage: ± (those compounds having less than 20% of the activity of 1 μM camptothecin)
HCT-116; [5]
  IC50: > 100 µM
UACC-62; [9]
  IC50: 50 µM
[1]; Homo sapiens
  IC50: 42 µM
[1]
  cytotoxicity (MGM) relative to lead compound 1: lower MGM than the lead compound 1
DU-145; [8]
  IC50: 4 µM

## COc1cc2c3c(n(C)c(=O)c2cc1OC)-c1cc(OC)c(OC)c(OC)c1C3=O [Compound 13i, 5,6-Dihydro-5,11-diketo-6methyl-2,3,8,9,10-pentamethoxy-11H-indeno[1,c]isoquinoline]
OVCAR-3
  IC50: > 100 µM
MDA-MB-435
  IC50: > 100 µM
HOP-62
  IC50: > 100 µM
Topoisomerase I
  Top 1 Cleavage: 0
HCT-116
  IC50: > 100 µM
UACC-62
  IC50: 55 µM
[1]
  IC50: 95 µM
SF-539
  IC50: > 100 µM
SN12C
  IC50: > 100 µM
DU-145
  IC50: > 100 µM

## CCN1C(=O)c2cc(OC)c(OC)cc2[C@@H]2[C@H]1c1cc3c(cc1[C@@H]2O)OCO3 [Compound 24, 6-Ethyl-5,6,12α,13α-tetrahydro-11β-hydroxy-2,3-dimethoxy-8,9-(methylenedioxy)-5-oxo-11H-indeno[1,2-c]isoquinoline]
OVCAR-3; [2]
  IC50: > 100 µM
MDA-MB-435; [3]
  IC50: > 100 µM
HOP-62; [4]
  IC50: > 100 µM
Topoisomerase I
  Top 1 Cleavage: 0
HCT-116; [5]
  IC50: > 100 µM
[1]; Homo sapiens
  IC50: 100 µM
SF-539; [6]
  IC50: > 100 µM
SN12C; [7]
  IC50: > 100 µM
DU-145; [8]
  IC50: > 100 µM

## O=C1c2ccccc2-c2c1c1ccccc1c(=O)n2C1CC1 [Compound 5, 6-Cyclopropyl-5,6-dihydro-5,11-diketo-11H-indeno[1,2-c]isoquinoline]
OVCAR-3; [2]
  IC50: > 100 µM
MDA-MB-435; [3]
  IC50: > 100 µM
HOP-62; [4]
  IC50: 61 µM
Topoisomerase I
  Top 1 Cleavage: 0
HCT-116; [5]
  IC50: > 100 µM
UACC-62; [9]
  IC50: 84 µM
[1]; Homo sapiens
  IC50: 98 µM
SF-539; [6]
  IC50: > 100 µM
SN12C; [7]
  IC50: > 100 µM
DU-145; [8]
  IC50: > 100 µM

## CCN1Cc2cc(OC)c(OC)cc2[C@@H]2[C@H]1c1cc3c(cc1[C@@H]2O)OCO3 [Compound 25, 6-Ethyl-5,6,12α,13α-tetrahydro-11β-hydroxy-2,3-dimethoxy-8,9-(methylenedioxy)-11H-indeno[1,2-c]isoquinoline]
OVCAR-3; [2]
  IC50: 24 µM
MDA-MB-435; [3]
  IC50: 25 µM
HOP-62; [4]
  IC50: 30 µM
Topoisomerase I
  Top 1 Cleavage: 0
HCT-116; [5]
  IC50: 35 µM
[1]; Homo sapiens
  IC50: 31 µM
SF-539; [6]
  IC50: 50 µM
SN12C; [7]
  IC50: 26 µM
DU-145; [8]
  IC50: 41 µM

## COc1cc2c3c(n(C)c(=O)c2cc1OC)-c1cc(OC)c(OS(C)(=O)=O)cc1C3=O [Compound 23, 5,6-Dihydro-5,11-diketo-2,3,8-trimethoxy-6-methyl-9[(methylsulfonyl)oxy]-(11H)indeno[1,2-c]isoquinoline]
Topoisomerase I
  Top 1 Cleavage: ± (those compounds having less than 20% of the activity of 1 μM camptothecin)

## CCCn1c2c(c3ccccc3c1=O)C(=O)c1ccccc1-2 [Compound 4, 5,6-Dihydro-5,11-diketo-6-propyl-11H-indeno[1,2-c]isoquinoline]
Topoisomerase I
  Top 1 Cleavage: 0

## Cn1c2c(c3ccccc3c1=O)C(=O)c1cc3c(cc1-2)OCO3 [Compound 13a, 5,6-Dihydro-5,11-diketo-6-methyl-8,9-methylenedioxy-11H-indeno[1,2-c]isoquinoline]
OVCAR-3; [2]
  IC50: > 100 µM
HOP-62; [4]
  IC50: 22 µM
Topoisomerase I
  Top 1 Cleavage: + (those compounds having between 20% and 50% of the activity of 1 μM camptothecin)
HCT-116; [5]
  IC50: 54 µM
UACC-62; [9]
  IC50: > 100 µM
[1]; Homo sapiens
  IC50: 45 µM
SN12C; [7]
  IC50: > 100 µM
DU-145; [8]
  IC50: > 100 µM

## COc1cc2c(c(OC)c1OC)C(=O)c1c-2n(C)c(=O)c2ccccc12 [Compound 13j, 5,6-Dihydro-5,11-diketo-6-methyl-8,9,10-trimethoxy-11H-indeno[1,2-c]isoquinoline]
OVCAR-3; [2]
  IC50: > 100 µM
HOP-62; [4]
  IC50: 24 µM
Topoisomerase I
  Top 1 Cleavage: 0
[1]; Homo sapiens
  IC50: 78 µM
SF-539; [6]
  IC50: > 100 µM
SN12C; [7]
  IC50: > 100 µM
DU-145; [8]
  IC50: > 100 µM

## COC(=O)Cn1c2c(c3ccccc3c1=O)C(=O)c1ccccc1-2 [Compound 6, 5,6-Dihydro-5,11-diketo-6-(methoxycarbonylmethyl)-11H-indeno[1,2-c]isoquinoline]
OVCAR-3; [2]
  IC50: > 100 µM
MDA-MB-435; [3]
  IC50: > 100 µM
Topoisomerase I
  Top 1 Cleavage: 0
UACC-62; [9]
  IC50: > 100 µM
[1]; Homo sapiens
  IC50: 81 µM
SF-539; [6]
  IC50: > 100 µM
SN12C; [7]
  IC50: > 100 µM
DU-145; [8]
  IC50: > 100 µM

## CCCCn1c2c(c3cc(OC)c(OC)cc3c1=O)C(=O)c1cc3c(cc1-2)OCO3 [Compound 13d, 6-(1-Butyl)-5,6-dihydro-5,11-diketo-2,3-dimethoxy-8,9-methylenedioxy11H-indeno[1,2-c]isoquinoline]
OVCAR-3; [2]
  IC50: 78 µM
MDA-MB-435; [3]
  IC50: > 100 µM
HOP-62; [4]
  IC50: 16 µM
Topoisomerase I
  Top 1 Cleavage: + (those compounds having between 20% and 50% of the activity of 1 μM camptothecin)
HCT-116; [5]
  IC50: 45 µM
UACC-62; [9]
  IC50: 21 µM
[1]; Homo sapiens
  IC50: 42 µM
DU-145; [8]
  IC50: 16 µM
